The data set can be described thus: Particle size distribution of micronized and non-micronized dabigatran etexilate mesylate. Conditions: DEM particle diameter distribution. Format: physicochemical. An excerpt: Examples of dabigatran etexilate mesylate particle size useful for the pharmaceutical composition described herein are shown in Table 9. The distribution of dabigatran etexilate mesylate particle sizes is set forth by the diameter distribution in either micronized or non-micronized samples. The dissolution of micronized and non-micronized dabigatran etexilate mesylate particles was studied using the matrix fill corresponding to DEM A as shown in Table 8 encapsulated in a hard gelatin capsule.

Structures can show the parent of a compound that is named as a salt.

As to `CCCCCCOC(=O)N=C(N)c1ccc(NCc2nc3cc(C(=O)N(CCC(=O)OCC)c4ccccn4)ccc3n2C)cc1` [Micronized, dabigatran etexilate mesylate], the “Particle size D(v, 0.1)” value was determined as 1.5 μm; the “Particle size D(v, 0.5)” value is 4.2 μm; the “Particle size D(v, 0.9)” value was determined as 10.5 μm.
On the same counts, the results for `CCCCCCOC(=O)N=C(N)c1ccc(NCc2nc3cc(C(=O)N(CCC(=O)OCC)c4ccccn4)ccc3n2C)cc1` [Non-micronized, dabigatran etexilate mesylate] are 4.7 μm, 20.8 μm and 50.1 μm.

The values above are taken from US20150366813A1, “LIQUID-FILLED IMMEDIATE RELEASE SOFT GELATIN CAPSULES” (Banner Life Sciences LLC, priority 2014, published 2015).
